Data published in ChEMBL document CHEMBL1201862, “PubChem BioAssay data set” (2004).
Active and inactive are the calls of the source.

Assays:
[1] = biological target: T1, DNA dC->dU-editing enzyme APOBEC-3A (Homo sapiens, UniProt P31941); assay: Dose Response confirmation of small molecule APOBEC3A DNA Deaminase Inhibitors via a fluorescence-based single-stranded DNA deaminase assay. [Related pubchem assays (depositor defined):AID493011, AID493024]; format: functional
[2] = biological target: T2, DNA dC->dU-editing enzyme APOBEC-3G (Homo sapiens, UniProt Q9HC16); format: functional
[3] = biological target: T3, Microphthalmia-associated transcription factor (Homo sapiens, UniProt O75030); assay: reducers of TRPM1 reporter luminescence, concentration series – cell-based, SK-MEL-5, cherry-picked, set 3, MITF inhibitor project, dose response (AID 493073); format: functional;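 note: SK-MEL-5 melanoma cells with luciferase driven by the MITF target TRPM1 promoter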
T3 sequence (O75030 whole entry): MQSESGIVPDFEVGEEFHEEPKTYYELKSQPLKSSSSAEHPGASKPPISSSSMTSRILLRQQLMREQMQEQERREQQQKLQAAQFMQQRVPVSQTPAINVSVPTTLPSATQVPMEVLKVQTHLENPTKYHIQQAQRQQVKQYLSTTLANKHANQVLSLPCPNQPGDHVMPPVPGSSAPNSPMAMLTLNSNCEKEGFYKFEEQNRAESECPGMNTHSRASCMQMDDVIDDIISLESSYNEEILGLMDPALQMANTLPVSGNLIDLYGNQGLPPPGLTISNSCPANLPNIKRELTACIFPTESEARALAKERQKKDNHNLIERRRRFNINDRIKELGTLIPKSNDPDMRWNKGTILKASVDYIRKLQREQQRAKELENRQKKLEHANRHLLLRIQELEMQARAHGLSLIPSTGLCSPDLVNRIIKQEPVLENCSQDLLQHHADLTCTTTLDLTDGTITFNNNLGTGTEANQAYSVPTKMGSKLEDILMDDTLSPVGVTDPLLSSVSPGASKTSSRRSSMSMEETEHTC

[4] = biological target: T1, DNA dC->dU-editing enzyme APOBEC-3A; assay: SAR analysis of small molecule inhibitors of APOBEC3A DNA Deaminase via a fluorescence-based single-stranded DNA deaminase assay.; format: functional; conditions: read-out: IC50_Mean
[5] = biological target: T1, DNA dC->dU-editing enzyme APOBEC-3A; assay: SAR analysis of small molecule inhibitors of APOBEC3A DNA Deaminase via a fluorescence-based single-stranded DNA deaminase assay - Set 2.; format: functional; conditions: read-out: IC50_Mean
[6] = biological target: Intestinal-type alkaline phosphatase (Mus musculus, UniProt P24822); assay: PubChem AID 488785; format: functional
[7] = biological target: T2, DNA dC->dU-editing enzyme APOBEC-3G; assay: inhibition of APOBEC3G ssDNA deamination – biochemical, fluorescence, single-stranded DNA substrate, SAR follow-up (AID 602136); format: functional; conditions: read-out: IC50_Mean
[8] = biological target: Intestinal-type alkaline phosphatase (Homo sapiens, UniProt P09923); assay: inhibition of human intestinal alkaline phosphatase – biochemical, dose response (AID 488876); format: functional
[9] = biological target: T4, Alkaline phosphatase, tissue-nonspecific isozyme (Homo sapiens, UniProt P05186); assay: TNAP enzyme inhibition by screening hits, dose response, selectivity assay for mouse IAP inhibitor project, biochemical, human TNAP, uHTS hits (AID 488906); format: functional
T4 sequence (P05186 whole entry): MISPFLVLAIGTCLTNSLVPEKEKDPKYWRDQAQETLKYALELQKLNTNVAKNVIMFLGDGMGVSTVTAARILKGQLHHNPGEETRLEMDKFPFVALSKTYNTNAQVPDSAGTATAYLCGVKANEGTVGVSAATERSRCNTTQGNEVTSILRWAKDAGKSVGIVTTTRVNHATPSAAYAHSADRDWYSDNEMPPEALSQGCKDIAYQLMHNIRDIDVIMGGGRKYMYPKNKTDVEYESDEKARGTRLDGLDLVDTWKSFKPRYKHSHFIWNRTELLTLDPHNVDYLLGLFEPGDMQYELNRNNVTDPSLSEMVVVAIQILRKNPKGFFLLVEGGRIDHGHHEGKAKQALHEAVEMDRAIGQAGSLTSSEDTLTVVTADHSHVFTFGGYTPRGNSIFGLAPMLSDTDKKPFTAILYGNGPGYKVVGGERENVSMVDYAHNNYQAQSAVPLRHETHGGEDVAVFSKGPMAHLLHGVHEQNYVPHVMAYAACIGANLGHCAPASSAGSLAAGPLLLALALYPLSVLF

[10] = biological target: T2, DNA dC->dU-editing enzyme APOBEC-3G; assay: SAR analysis of small molecule inhibitors of APOBEC3G DNA Deaminase via a fluorescence-based single-stranded DNA deaminase assay - Set 2.; format: functional; conditions: read-out: IC50_Mean
[11] = cAMP pathway inhibition in counterscreen cell line – TR-FRET cAMP detection, counter-screen for MC4R biased antagonist project, dose response (AID 602305); format: functional, cell-based;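 note: U2OS cells stimulated with forskolin near its EC80 as the cAMP inducer; potency is for inhibition of forskolin-stimulated cAMP signaling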
HEK293 [12] = assay: cells; conditions: Homo sapiens
HEK293 [13] = assay: cells; conditions: Homo sapiens; remark: listed apart in the source
Melanocortin receptor 4 = Melanocortin receptor 4 (Homo sapiens, UniProt P32245); assay: inhibitors of MC4R cAMP signaling – cell-based, TR-FRET, biased antagonists, dose response (AID 602298); format: functional;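 note: antagonist potency against agonist-stimulated cAMP production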
[14] = viability of HCT116 lacking mutant beta-catenin – cell-based, human colon tumor, dose response (AID 1045); format: functional;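 note: HCT116 colon tumor cells with beta catenin knocked out; cells exposed to compound for 60 hours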
[15] = biological target: T5, Replicative DNA helicase DnaB (Mycobacterium tuberculosis, UniProt P9WMR3); assay: DnaB intein splicing inhibitors, dose response, biochemical, cell-free fluorescence (AID 449749); format: functional
T5 sequence (P9WMR3 whole entry): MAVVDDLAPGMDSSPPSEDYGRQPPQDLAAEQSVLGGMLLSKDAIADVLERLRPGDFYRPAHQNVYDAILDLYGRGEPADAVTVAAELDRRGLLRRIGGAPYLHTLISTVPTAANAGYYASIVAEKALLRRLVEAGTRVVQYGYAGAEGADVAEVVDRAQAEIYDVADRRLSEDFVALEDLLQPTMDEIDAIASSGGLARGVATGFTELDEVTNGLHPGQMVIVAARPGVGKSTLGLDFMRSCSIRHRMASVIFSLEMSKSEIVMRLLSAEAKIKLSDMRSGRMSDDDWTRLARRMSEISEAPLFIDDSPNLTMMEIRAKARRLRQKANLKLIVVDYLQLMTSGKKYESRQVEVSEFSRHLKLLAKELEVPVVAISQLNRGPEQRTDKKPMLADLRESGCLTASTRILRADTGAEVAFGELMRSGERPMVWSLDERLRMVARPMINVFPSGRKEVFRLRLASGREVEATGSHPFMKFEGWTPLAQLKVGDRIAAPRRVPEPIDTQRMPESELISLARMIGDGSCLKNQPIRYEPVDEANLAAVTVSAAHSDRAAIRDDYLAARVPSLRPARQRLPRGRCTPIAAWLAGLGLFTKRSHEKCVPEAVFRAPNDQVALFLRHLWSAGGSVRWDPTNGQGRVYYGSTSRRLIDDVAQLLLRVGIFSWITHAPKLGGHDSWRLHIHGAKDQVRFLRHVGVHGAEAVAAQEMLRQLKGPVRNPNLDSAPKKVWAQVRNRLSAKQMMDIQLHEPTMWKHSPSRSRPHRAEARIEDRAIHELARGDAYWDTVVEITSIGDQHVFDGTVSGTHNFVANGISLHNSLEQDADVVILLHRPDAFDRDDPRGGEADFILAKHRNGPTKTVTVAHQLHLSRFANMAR

Protein RecA = biological target: T6, Protein RecA (Mycobacterium tuberculosis, UniProt P9WHJ3); assay: Fluorescence Cell-Free Homogeneous Dose Retest to Identify Inhibitors of RecA-Intein Splicing Activity. [Related pubchem assays (depositor defined):AID2097, AID2223, AID489010, AID492950]; format: functional
T6 sequence (P9WHJ3 whole entry): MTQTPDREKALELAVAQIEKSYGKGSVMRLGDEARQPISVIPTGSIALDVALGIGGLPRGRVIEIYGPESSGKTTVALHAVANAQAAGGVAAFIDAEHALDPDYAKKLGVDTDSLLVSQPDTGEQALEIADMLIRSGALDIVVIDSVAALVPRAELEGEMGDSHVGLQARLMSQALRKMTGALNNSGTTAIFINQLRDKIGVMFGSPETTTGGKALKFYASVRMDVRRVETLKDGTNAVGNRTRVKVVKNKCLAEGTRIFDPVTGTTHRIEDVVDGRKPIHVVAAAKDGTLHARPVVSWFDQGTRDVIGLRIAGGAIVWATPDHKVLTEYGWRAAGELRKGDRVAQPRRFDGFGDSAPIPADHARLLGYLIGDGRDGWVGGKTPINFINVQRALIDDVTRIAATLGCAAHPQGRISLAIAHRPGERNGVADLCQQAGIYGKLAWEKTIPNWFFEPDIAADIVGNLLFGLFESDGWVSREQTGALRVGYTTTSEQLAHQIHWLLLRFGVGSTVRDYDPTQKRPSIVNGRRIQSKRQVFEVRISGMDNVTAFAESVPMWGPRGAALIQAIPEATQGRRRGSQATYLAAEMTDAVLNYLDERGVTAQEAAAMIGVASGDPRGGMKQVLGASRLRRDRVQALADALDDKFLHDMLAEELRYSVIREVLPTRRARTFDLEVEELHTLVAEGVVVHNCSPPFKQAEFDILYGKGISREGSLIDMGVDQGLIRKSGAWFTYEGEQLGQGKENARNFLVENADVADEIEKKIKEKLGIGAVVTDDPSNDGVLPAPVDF

[16] = biological target: Heat shock protein HSP 90-alpha (Homo sapiens, UniProt P07900); format: functional, organism-based
[17] = reduction of Shn3 3'UTR-driven luciferase in osteoblasts – cell-based, Clone20 osteoblasts, firefly luciferase, cherry-picked, dose response (AID 624132); format: functional;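 note: firefly luciferase luminescence from reporter carrying the Shn3 3'UTR in osteoblasts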
[18] = non-specific 3'UTR reporter inhibition in Clone20-Shn3RL – cell-based, Renilla luciferase, cherry-picked, counter-screen for Shn3 inhibitor project, dose response (AID 624133); format: functional
[19] = NIH-3T3 fibroblast cytotoxicity, dose response, cytotoxicity control, cell-based, fluorescence, Alamar Blue, secondary assay (AID 2327); format: functional;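 note: NIH-3T3 mouse fibroblasts cultured with fluconazole at 8 µg/mL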
[20] = fluconazole-exposed Candida albicans growth modulators – fluorescence, retest, confirmation (AID 2467); format: functional, cell-based
[21] = viability of PTEN-deleted HCT116 cells – cell-based, HCT116 PTEN knockout, dose response (AID 1047); format: functional;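 note: HCT116 colon tumor cells with PTEN knocked out; cells exposed to compound for 60 hours before readout; potency for loss of cell viability measured by luminescence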
[22] = biological target: T7, High affinity choline transporter 1 (Homo sapiens, UniProt Q9GZV3); assay: human choline transporter blockers, potency – cell-based, 10-point CRC, membrane potential dye, dose response (AID 588401); format: functional;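 note: membrane potential dye fluorescence of choline-evoked depolarization via CHT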
T7 sequence (Q9GZV3 whole entry): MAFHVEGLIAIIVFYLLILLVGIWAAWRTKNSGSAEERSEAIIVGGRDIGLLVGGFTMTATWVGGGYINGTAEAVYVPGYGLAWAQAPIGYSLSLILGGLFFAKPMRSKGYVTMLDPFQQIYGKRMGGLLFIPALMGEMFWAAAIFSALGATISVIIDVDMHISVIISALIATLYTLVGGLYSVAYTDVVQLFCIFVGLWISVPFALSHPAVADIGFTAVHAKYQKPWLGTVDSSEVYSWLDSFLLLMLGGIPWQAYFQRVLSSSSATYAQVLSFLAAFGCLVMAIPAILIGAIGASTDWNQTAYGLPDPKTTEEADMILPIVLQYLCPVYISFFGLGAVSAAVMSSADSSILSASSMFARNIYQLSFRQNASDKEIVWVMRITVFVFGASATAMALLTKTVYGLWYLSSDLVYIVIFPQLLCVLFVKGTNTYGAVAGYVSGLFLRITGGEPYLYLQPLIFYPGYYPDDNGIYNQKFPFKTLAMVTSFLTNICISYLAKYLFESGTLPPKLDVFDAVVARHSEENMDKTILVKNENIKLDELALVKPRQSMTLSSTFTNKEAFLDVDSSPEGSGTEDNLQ

[23] = biological target: T7, High affinity choline transporter 1; assay: human choline transporter blockers, potency – cell-based, 5-point CRC, membrane potential dye, dose response (AID 504840); format: functional

T2 sequence (Q9HC16 whole entry): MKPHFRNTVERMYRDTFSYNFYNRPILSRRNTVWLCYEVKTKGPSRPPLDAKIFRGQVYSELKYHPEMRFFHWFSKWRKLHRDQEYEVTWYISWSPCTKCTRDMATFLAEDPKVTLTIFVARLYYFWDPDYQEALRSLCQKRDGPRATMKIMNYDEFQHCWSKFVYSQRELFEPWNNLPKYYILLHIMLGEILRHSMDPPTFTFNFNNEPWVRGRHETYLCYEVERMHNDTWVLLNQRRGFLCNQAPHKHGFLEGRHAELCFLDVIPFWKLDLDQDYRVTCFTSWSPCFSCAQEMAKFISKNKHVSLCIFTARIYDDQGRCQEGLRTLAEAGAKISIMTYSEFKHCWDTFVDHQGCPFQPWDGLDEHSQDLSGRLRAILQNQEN
T1 sequence (P31941 whole entry): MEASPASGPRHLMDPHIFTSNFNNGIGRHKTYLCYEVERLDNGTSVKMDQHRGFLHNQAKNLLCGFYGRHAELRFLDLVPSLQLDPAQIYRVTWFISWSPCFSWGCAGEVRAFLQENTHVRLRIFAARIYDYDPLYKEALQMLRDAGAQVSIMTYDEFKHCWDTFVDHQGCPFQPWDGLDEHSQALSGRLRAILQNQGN
Sequence of Intestinal-type alkaline phosphatase (Mus musculus, UniProt P24822) (P24822 whole entry): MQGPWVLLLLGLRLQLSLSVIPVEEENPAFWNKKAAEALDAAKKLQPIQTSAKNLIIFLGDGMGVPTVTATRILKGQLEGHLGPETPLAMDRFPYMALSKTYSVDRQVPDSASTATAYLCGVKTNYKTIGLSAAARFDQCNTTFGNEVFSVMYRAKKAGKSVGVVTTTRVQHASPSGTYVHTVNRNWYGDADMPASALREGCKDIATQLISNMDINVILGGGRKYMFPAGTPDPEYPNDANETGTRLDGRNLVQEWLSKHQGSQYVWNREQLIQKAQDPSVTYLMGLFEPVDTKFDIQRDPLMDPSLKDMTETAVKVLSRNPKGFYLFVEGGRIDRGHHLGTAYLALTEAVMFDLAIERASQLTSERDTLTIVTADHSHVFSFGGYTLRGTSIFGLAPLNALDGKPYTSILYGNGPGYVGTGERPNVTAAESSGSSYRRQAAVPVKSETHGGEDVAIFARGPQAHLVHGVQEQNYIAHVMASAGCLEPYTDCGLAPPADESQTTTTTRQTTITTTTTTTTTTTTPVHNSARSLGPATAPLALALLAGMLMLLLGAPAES
Sequence of Melanocortin receptor 4 (P32245 whole entry): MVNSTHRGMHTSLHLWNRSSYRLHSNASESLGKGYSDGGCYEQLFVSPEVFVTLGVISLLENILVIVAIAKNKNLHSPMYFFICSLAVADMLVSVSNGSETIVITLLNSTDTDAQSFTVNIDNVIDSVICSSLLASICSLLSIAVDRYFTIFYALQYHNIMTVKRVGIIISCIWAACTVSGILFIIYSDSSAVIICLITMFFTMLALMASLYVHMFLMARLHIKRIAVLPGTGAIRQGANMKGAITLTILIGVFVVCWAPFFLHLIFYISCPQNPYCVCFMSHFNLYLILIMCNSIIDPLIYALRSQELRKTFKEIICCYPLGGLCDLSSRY
Sequence of Intestinal-type alkaline phosphatase (Homo sapiens, UniProt P09923) (P09923 whole entry): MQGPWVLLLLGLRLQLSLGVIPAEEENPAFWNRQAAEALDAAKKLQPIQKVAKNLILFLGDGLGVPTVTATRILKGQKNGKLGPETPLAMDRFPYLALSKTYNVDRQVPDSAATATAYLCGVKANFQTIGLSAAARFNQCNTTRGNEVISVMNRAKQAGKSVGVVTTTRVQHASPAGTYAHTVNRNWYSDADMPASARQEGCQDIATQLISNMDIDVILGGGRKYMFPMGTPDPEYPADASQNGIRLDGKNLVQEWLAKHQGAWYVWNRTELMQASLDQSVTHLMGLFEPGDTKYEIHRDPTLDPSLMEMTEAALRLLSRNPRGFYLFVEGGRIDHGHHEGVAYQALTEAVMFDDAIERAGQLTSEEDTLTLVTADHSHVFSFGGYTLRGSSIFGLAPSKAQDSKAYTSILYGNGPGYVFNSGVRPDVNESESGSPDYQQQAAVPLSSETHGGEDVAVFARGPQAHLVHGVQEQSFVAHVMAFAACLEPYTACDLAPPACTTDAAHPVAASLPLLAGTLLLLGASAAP

For `Cn1nc([N+](=O)[O-])nc1S(C)(=O)=O`, the IC50 [1] was 4.14 µM (active), the IC50 [2] was 65.5 µM (active) and the AC50 [3] was 9.2 µM (active). For the same molecule, the IC50 [4] was 14.4 µM (inactive), the IC50 [5] was 13.1 µM (inactive) and the IC50 [6] was 5.66 µM (active). For the same molecule, the IC50 [7] was 27.2 µM (inactive), the IC50 [8] was > 100 µM (inactive) and the IC50 [9] was 74.1 µM (active). For the same molecule, the IC50 [10] was 24.1 µM (inactive).

For `O=[N+]([O-])c1cc(S(=O)(=O)C(F)(F)F)ccc1Sc1nc2ccccc2s1`, the IC50 [11] was > 64.6 µM (inactive), the EC50 (HEK293 [12]) was > 59.6 µM (inactive) and the EC50 (HEK293 [13]) was > 59.6 µM (inactive). The IC50 (Melanocortin receptor 4) was > 2.39 µM (active), the EC50 [14] was 7.45 µM (active) and the AC50 [15] was 1.75 µM (active). The EC50 (Protein RecA) was 0.249 µM (active), the AC50 [16] was 1.75 µM (active) and the AC50 [17] was 2.45 µM (active). The AC50 [18] was 15.4 µM (active), the EC50 [19] was 5 µM (active) and the EC50 [20] was > 38 µM (not active). The EC50 [21] was 8.04 µM (active).

With `CC1CCCCC1NC(=O)C1CCCN(S(=O)(=O)c2ccc(-n3cnnn3)cc2)C1` (stereo not given) the IC50 [22] was 3.98 µM (active) and the IC50 [23] was 5.75 µM (active).
